Experimental data as given in patent US6310210A, “Camptothecin derivatives” (Kabushiki Kaisha Yakult Honsha, priority 1997, dated 2001).
In brackets after ≈: the same amount, converted by molar mass. Blank lines part the entries; values can stand above or below the molecule they belong to.

Tests used:
[1] = Solubility of each hydrochloride in purified water; format: physicochemical
Description: A corresponding camptothecin-21-(2-dimethylamino) ethylamide derivative (100-200 mg) was added with an aqueous 0.1 N HCl solution (1.05 eq.) and dissolved, if necessary, further by adding purified water. The solution was filtered using MILLEX-GV ([…] Filter Unit), and the filtrate was lyophilized to give the desired hydrochloride.
Table 1: Solubility of each hydrochloride in purified water

mouse leukemia L1210 = test: Anti-tumor activity: life prolonging effect in mice transplanted intraperitoneally with mouse leukemia L1210 (T/C%); format: in vivo; conditions: for Anti-tumor activity (T/C%): i.p. day 1, 5 and 9
Description: 5×10^5 cells of mouse leukemia L1210 were transplanted intraperitoneally to a group of six female CDP1 mice (7 weeks old, body weight 17-19 g). A test substance was administered intraperitoneally on day 1, 5 and 9, and its life prolonging effect was observed. In a case of the administration of a test substance as an acid addition salt, it was dissolved in purified water. The total administration amount was 1.56-400 mg/kg. The anti-tumor activity was expressed by the value (T/C%) in which the ratio of the mean survival days of a drug administered group (T) to the mean survival days of a not administered group (C) is multiplied by 100.

[2] = Stability test in water at each pH (phosphate buffer, HPLC); format: physicochemical; conditions: for Amount of the compound in test solution: room temperature (about 26° C.)
Description: 1) Preparation of calibration curve:
1.05 mg of the compound 1 and 1.10 mg of the compound A (Note) were measured, dissolved in acetonitrile 10 ml to give a standard solution. 20 μl of the standard solution was tested by HPLC method (procedure condition 1). The peak area of the compound 1 and the compound A (Note), which is obtained from the chromatograph of the standard solution is measured by an automatic integration method, and the obtained area is plotted against an amount of the compound 1 and the compound A (2.1 μg and 2.2 μg) by 20 μl to prepare a calibration curve.
[HPLC method, procedure condition 1]
Column: Inertsil ODS-3 (5-250), 40 deg.
Mobile phase: 0.01 M potassium dihydrogenphosphate-acetonitrile (3:1)
Detection: UV absorptiometer (254 nm)
About 1 mg (×3) of the compound 1 were measured, dissolved adding a phosphate buffer 10 ml of pH 10.0, 7.0 or 5.4, stirred at room temperature (about 26° C.) to make a test solution. As to each 20 μl of the test solution at the time of dissolution, 3 hr later and 24 hr later, the tests were carried out by the HPLC method (procedure condition 1). The amounts of the compound 1 were measured from the obtained area. The amounts of the compound A in each pH were measured.
The amounts (μg/ml) of the compound 1 and the compound A at the time of dissolution, 3 hr later and 24 hr later in each pH are shown in Table 7.

solubility [1]: ≥ 50 mg/mL | Amount of the compound in test solution ([2]; pH 5.4, 3 hr later): 118 µg/mL | Amount of the compound in test solution ([2]; pH 5.4, 24 hr later): 118 µg/mL | Amount of the compound in test solution ([2]; pH 5.4, at the time of dissolution): 118 µg/mL | Amount of the compound in test solution ([2]; pH 7.0, 3 hr later): 105 µg/mL | Amount of the compound in test solution ([2]; pH 7.0, 24 hr later): 105 µg/mL | Amount of the compound in test solution ([2]; pH 7.0, at the time of dissolution): 105 µg/mL | Stability in aqueous solution (in words) ([2]; pH 7.0 and 5.4, room temperature): stably present at room temperature | Amount of the compound in test solution ([2]; pH 10.0, 3 hr later): 106 µg/mL | Amount of the compound in test solution ([2]; pH 10.0, 24 hr later): 97 µg/mL | Amount of the compound in test solution ([2]; pH 10.0, at the time of dissolution): 109 µg/mL | remaining at 24 h ([2]; phosphate buffer, pH 10.0, after 24 hr, read-out: remained in the aqueous solution): 89%
SMILES: CCc1c2c(nc3ccccc13)-c1cc([C@@](O)(CC)C(=O)NCCN(C)C)c(COC(=O)NC)c(=O)n1C2 [Compound 1, 7-Ethyl-17-methylcarbamoyloxycamptothecin-21-(2-dimethylamino)ethylamide]
Anti-tumor activity (T/C%) (mouse leukemia L1210; Table 2, total dose 3.13 mg/kg): 97% | Anti-tumor activity (T/C%) (mouse leukemia L1210; Table 2, total dose 6.25 mg/kg): 97% | Anti-tumor activity (T/C%) (mouse leukemia L1210; Table 2, total dose 12.5 mg/kg): 95% | Anti-tumor activity (T/C%) (mouse leukemia L1210; Table 2, total dose 25 mg/kg): 97% | Anti-tumor activity (T/C%) (mouse leukemia L1210; Table 2, total dose 50 mg/kg): 97% | Anti-tumor activity (T/C%) (mouse leukemia L1210; Table 2, total dose 100 mg/kg): 139% | Anti-tumor activity (T/C%) (mouse leukemia L1210; Table 2, total dose 200 mg/kg): 145%

solubility [1]: ~50 mg/mL (≈ 93.3 mM)
SMILES: CCc1c2c(nc3ccccc13)-c1cc([C@@](O)(CC)C(=O)NCCN(C)C)c(COC(=O)N(C)C)c(=O)n1C2 [Compound 14, 17-Dimethylcarbamoyloxy-7-ethylcamptothecin-21-(2-dimethylamino)ethylamide]
Anti-tumor activity (T/C%) (mouse leukemia L1210; Table 4, total dose 3.13 mg/kg): 118% | Anti-tumor activity (T/C%) (mouse leukemia L1210; Table 4, total dose 6.25 mg/kg): 121% | Anti-tumor activity (T/C%) (mouse leukemia L1210; Table 4, total dose 12.5 mg/kg): 126% | Anti-tumor activity (T/C%) (mouse leukemia L1210; Table 4, total dose 25 mg/kg): 136% | Anti-tumor activity (T/C%) (mouse leukemia L1210; Table 4, total dose 50 mg/kg): 149% | Anti-tumor activity (T/C%) (mouse leukemia L1210; Table 4, total dose 100 mg/kg): 218% | Anti-tumor activity: fraction in parentheses after T/C% (meaning not given) (mouse leukemia L1210; Table 4, total dose 200 mg/kg, group of six mice): 4/6 | Anti-tumor activity (T/C%) (mouse leukemia L1210; Table 4, total dose 200 mg/kg): 523%
